The values below are quoted from earlier work in US20050106735A1, “COMPOSITON FOR NON-TOXIC, NON-HAZARDOUS, AND ENVIRONMENTALLY FRIENDLY HUMIDITY-INDICATING AGENT AND ITS APPLICATION” (GP&E AMERICA, LLC, priority 2004, published 2005).

Series [1] concerns Rat. The following applies: oral.
For series [2], the system named is aquatic organisms.

Consider `[Cl][Co][Cl]` [Cobalt Chloride], for which, where the note is “Commission Directive 2004/73/EC”, the “Concentration at which the substance may cause cancer by inhalation” value was no less than 0.01%. For the setting “Council Directive 67/548/EEC”, the “European Union carcinogen classification” value is recorded as “category 2 carcinogen”. Moreover, the “Toxicity (ORL-RAT LD50)” value in series [1] was 80 mg/kg.

With `[Cl][Cu][Cl]` [Copper Chloride], in series [1], the “Toxicity (ORL-RAT LD50)” value is 584 mg/kg.

For `[Cl-].[Cl-].[Mg+2]` [Magnesium Chloride], the “Toxicity (ORL-RAT LD50)” value in series [1] is listed as 8100 mg/kg.

Regarding `[Cl-].[Na+]` [Sodium Chloride], in series [1], the “Toxicity (ORL-RAT LD50)” value is given as 3000 mg/kg.

As to `[Cl-].[Cl-].[Zn+2]` [Zinc Chloride], the “Toxicity to aquatic organisms” value in series [2] is “very toxic to aquatic organisms”. The “Toxicity (ORL-RAT LD50)” value in series [1] is listed as 350 mg/kg.
